Data on 33 compounds can be found in ChEMBL document CHEMBL5604062, “ASAP - ZIKV NS2B-NS3 protease fluorescence dose response” (2024).

In the experiment the target is Nonstructural protein 3 (Zika virus, UniProt A0A024AXB9). The experiment is described as follows: Functional biochemical assay to identify treatments for viral infectious disease that targets Zika NS2B-NS3 protease. Utilizing a direct enzyme activity measurement method, reading the fluorescence intensity is used to characterize the relative potency of inhibitors as IC50. Details: species or system PRVABC59.
Sequence of Nonstructural protein 3 (A0A024AXB9 whole entry): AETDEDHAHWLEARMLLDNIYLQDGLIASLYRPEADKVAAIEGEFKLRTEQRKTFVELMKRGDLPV

The structures appear in SMILES notation. Several values for one entry are separate records, joined by “and”; a condition that tells them apart may be missing. Equal values may be shown once.

`Cc1noc(C)c1C(=O)N[C@@H](C(=O)Nc1cccc(CN)c1)c1ccc(OCc2ccccc2)cc1` came in with an IC50 greater than 99.5 µM.
In the case of `O=C(NCCO)c1cc(Cl)ccc1NS(=O)(=O)c1ccc(Oc2ccccc2Cl)cc1`, the IC50 is greater than 99.5 µM.
The same measure for `N[C@H]1CCc2cc(-c3ccn(-c4ccccc4)n3)ccc2C1`: greater than 99.5 µM.
In the case of `Cc1ccc(F)c2c1CCN(Cc1ccn(C3CNC3)c1)C2` it was greater than 99.5 µM.
In the case of `CC(C)(C)c1cc(N2CCN(c3cccc4[nH]ncc34)CC2)nc(C(=O)O)n1` it was greater than 99.5 µM.
On to `O=C(N[C@@H](C(=O)NCc1cn[nH]c1)c1ccc(OCc2ccccc2)cc1)OCc1ccccc1`, for which the half-maximal inhibitory concentration (IC50) was greater than 99.5 µM.
`O=C(O)c1cc(Cl)ccc1NS(=O)(=O)c1ccc(OCc2cncnc2)cc1` gave an IC50 greater than 99.5 µM.
The same measure for `N#Cc1c(C(F)F)cccc1N1CCC(n2ncc(N)c2C(F)(F)F)CC1`: greater than 99.5 µM; for `Cc1cc(F)cc(N(C)C(=O)c2ccc(C3(CN)CC3)cc2)c1`: greater than 99.5 µM.
The same measure for `N[C@H]1CC[C@H](NC(=O)[C@@H](NC(=O)OCc2ccccc2)c2ccc(OCc3ccccc3)cc2)CC1`: greater than 99.5 µM; for `NCc1ccnc(CNC(=O)[C@@H](NC(=O)OCc2ccccc2)c2ccc(OCc3ccccc3)cc2)c1`: 93.7 µM.
`NCc1cccc(NC(=O)[C@@H]2Cc3ccc(OCc4ccccc4)cc3CN2C(=O)OCc2ccccc2)c1` showed an IC50 of 21.7 µM.
In the case of `NCC1(c2ccc(C(=O)N3CCc4scc(Br)c4C3)cc2)CC1` it was greater than 99.5 µM; in that of `NCc1cccc(CNC(=O)[C@@H](NC(=O)OCc2ccccc2)c2ccc(OCc3ccccc3)cc2)n1`, 65.6 µM.
The same measure for `CC(C)CNC(=O)c1cc(Cl)ccc1C=Cc1ccc(Oc2ccccc2Cl)cc1`: greater than 99.5 µM; for `NCc1ccc(CNC(=O)[C@@H](NC(=O)OCc2ccccc2)c2ccc(OCc3ccccc3)cc2)cc1`: 14.2 µM and 11.5 µM; for `O=C(NC1CCCCC1)c1cc(Cl)ccc1NS(=O)(=O)c1ccc(Oc2ccccc2Cl)cc1`: greater than 99.5 µM.
The same measure for `Cc1cc(-c2cccc([C@@H](NC(=O)OCc3ccccc3)C(=O)Nc3cccc(CN)c3)c2)ccn1`: 88.1 µM.
Regarding `NCc1cccc(NC(=O)[C@H]2c3ccc(Br)cc3OCCN2C(=O)OCc2ccccc2)c1`, the 50% inhibitory concentration (IC50) was greater than 99.5 µM.
In the case of `NC[C@H]1CC[C@@H](CNC(=O)[C@@H](NC(=O)OCc2ccccc2)c2ccc(OCc3ccccc3)cc2)CC1` it was 58.2 µM; in that of `CCCCCN(C)C(=O)c1cc(Cl)ccc1NS(=O)(=O)c1ccc(Oc2ccccc2Cl)cc1`, greater than 99.5 µM; in that of `CN(C)CCc1ccc(CNC(=O)[C@@H](NC(=O)OCc2ccccc2)c2ccc(OCc3ccccc3)cc2)cc1`, 54.6 µM.
Regarding `O=C(N[C@@H](C(=O)NCc1cccc2c1CCNC2)c1ccc(OCc2ccccc2)cc1)OCc1ccccc1`, half-maximal inhibition (IC50) required 39.4 µM.
The same measure for `C[C@@H](NC(=O)C1CCN(c2cccc(C(N)=O)n2)CC1)[C@H]1CCCNC1`: greater than 99.5 µM.
Take `NC[C@H]1CC[C@H](NC(=O)[C@@H](NC(=O)OCc2ccccc2)c2ccc(OCc3ccccc3)cc2)CC1`: the IC50 stood at 81.2 µM.
In the case of `N[C@@H](Cc1c[nH]cn1)C(=O)N1CCC2(CC1)OCCc1cc(O)ccc12` it was greater than 99.5 µM.
The same measure for `NCc1ccc2c(c1)CCC[C@H]2NCc1cc(Cl)cc2c1OCC2`: 61.4 µM; for `O=C(N[C@@H](C(=O)NCC1CCNCC1)c1ccc(OCc2ccccc2)cc1)OCc1ccccc1`: greater than 99.5 µM; for `NC[C@H]1CC[C@H](CNC(=O)[C@@H](NC(=O)OCc2ccccc2)c2ccc(OCc3ccccc3)cc2)CC1`: 80.3 µM.
In the case of `CCn1ccnc(N2CC(=O)[C@@H](c3c[nH]c4ccccc34)C2)c1=O` it was greater than 99.5 µM; in that of `O=S(=O)(Nc1ccc(Cl)cc1CN(CC1CC1)CC1CC1)c1ccc(Oc2ccccc2Cl)cc1`, 32 µM; in that of `O=C(NCc1nnn[nH]1)c1cc(Cl)ccc1NS(=O)(=O)c1ccc(Oc2ccccc2Cl)cc1`, greater than 99.5 µM.
Turning to `NCc1ccc(-c2ccc(OCC3CCNCC3)nc2-c2ccc(-c3ccoc3)cc2)cc1`, it took 22.8 µM to reach half-maximal inhibition (IC50).

What is called IC50 is the concentration at which inhibition is half-maximal.
